Experimental data published in patent publication US8648066B2 (Exelixis, Inc., priority 2009, dated 2014).
pIC50: −log10 of the molar value.

Molecular target: mTOR/GbL/Raptor (mTORC1) (Homo sapiens, UniProt P42345)
Experiment: mTOR/GbL/Raptor (mTORC1) ELISA assay
Assay type: biochemical
Settings: phosphorylation of 4E-BP1; 0.2 nM mTORC1, 10 μM ATP; read-out: IC50 in this assay (mTORC1 ELISA)
In short: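 ELISA read-out: phospho-4E-BP1 captured on Ni-chelate plates and detected with anti-phospho antibody plus HRP-anti-IgG luminescence. The kinase step ran 120 min at ambient temperature with 0.2 nM human mTORC1, 10 µM ATP, 50 nM His-4E-BP1, 10 mM MnCl2, pH 7.2 HEPES.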

Row | SMILES | pIC50
1 | CC1(C)CCc2ncnc(N3CCOc4ccc(-c5cnc(C#N)c(NS(C)(=O)=O)c5)cc4C3)c2C1 [Example 625, N-{2-cyano-5-[4-(6,6-dimethyl-5,6,7,8-tetrahydroquinazolin-4-yl)-2,3,4,5-tetrahydro-1,4-benzoxazepin-7-yl]pyridin-3-yl}methanesulfonamide] | 6.60 to 7.30
2 | CCN(CC)Cc1nc(C)c(C(C)C)c(N2CCOc3ccc(-c4ccc5nc(C)[nH]c5c4)cc3C2)n1 [Example 685, N-ethyl-N-({4-methyl-6-[7-(2-methyl-1H-benzimidazol-5-yl)-2,3-dihydro-1,4-benzoxazepin-4(5H)-yl]-5-(1-methylethyl)pyrimidin-2-yl}methyl)ethanamine] | 6.60 to 7.30
3 | COc1ccc2c(N3CCOc4ccc(-c5cnc6[nH]c(C)nc6c5)cc4C3)nc(C)nc2c1 [Example 568, 7-(2-methyl-1H-imidazo[4,5-b]pyridin-6-yl)-4-[2-methyl-7-(methyloxy)quinazolin-4-yl]-2,3,4,5-tetrahydro-1,4-benzoxazepine] | 6.60 to 7.30
4 | Cc1nc(CN(C)C)nc(N2CCOc3ccc(-c4cnc5sc(N)nc5c4)cc3C2)c1C(C)C [Example 674, 6-(4-{2-[(dimethylamino)methyl]-6-methyl-5-(1-methylethyl)pyrimidin-4-yl}-2,3,4,5-tetrahydro-1,4-benzoxazepin-7-yl)[1,3]thiazolo[5,4-b]pyridin-2-amine] | 7.30 to 8.00
5 | CCS(=O)(=O)c1cc(-c2ccc3c(c2)CN(c2ncnc4c2CC(C)(C)CC4)CCO3)cnc1N [Example 510, 5-[4-(6,6-dimethyl-5,6,7,8-tetrahydroquinazolin-4-yl)-2,3,4,5-tetrahydro-1,4-benzoxazepin-7-yl]-3-(ethylsulfonyl)pyridin-2-amine] | 7.30 to 8.00
6 | CC1(C)CCc2ncnc(N3CCOc4ccc(-c5cnc(N)c(S(=O)(=O)NC[C@@H]6CCCNC6)c5)cc4C3)c2C1 [Example 386, 2-amino-5-[4-(6,6-dimethyl-5,6,7,8-tetrahydroquinazolin-4-yl)-2,3,4,5-tetrahydro-1,4-benzoxazepin-7-yl]-N-[(3R)-piperidin-3-ylmethyl]pyridine-3-sulfonamide] | 6.00 to 6.60
7 | Cc1nc2ncc(-c3ccc4c(c3)CN(c3nc(CO)nc5c3CC(C)(C)CC5)CCO4)cc2[nH]1 [Example 312, {6,6-dimethyl-4-[7-(2-methyl-1H-imidazo[4,5-b]pyridin-6-yl)-2,3-dihydro-1,4-benzoxazepin-4(5H)-yl]-5,6,7,8-tetrahydroquinazolin-2-yl}methanol] | ≥ 8.00
8 | Cc1nc2ncc(-c3ccc4c(c3)CN(c3nc(CNCCF)nc5c3CC(C)(C)CC5)CCO4)cc2[nH]1 [Example 593, N-({6,6-dimethyl-4-[7-(2-methyl-1H-imidazo[4,5-b]pyridin-6-yl)-2,3-dihydro-1,4-benzoxazepin-4(5H)-yl]-5,6,7,8-tetrahydroquinazolin-2-yl}methyl)-2-fluoroethanamine] | ≥ 8.00
9 | Cc1nc2ccc(-c3ccc4c(c3)CN(c3ncnc(C)c3C(C)c3cccc(F)c3)CCO4)cc2[nH]1 (stereo not drawn) [Example 94, 4-{5-[1-(3-fluorophenyl)ethyl]-6-methylpyrimidin-4-yl}-7-(2-methyl-1H-benzimidazol-6-yl)-2,3,4,5-tetrahydro-1,4-benzoxazepine] | ≥ 8.00
10 | COc1ccc(-c2ccc3c(c2)CN(c2nc(CN(C)C)nc4c2CC(C)(C)CC4)CCO3)cn1 [Example 330, 1-(6,6-dimethyl-4-{7-[6-(methyloxy)pyridin-3-yl]-2,3-dihydro-1,4-benzoxazepin-4(5H)-yl}-5,6,7,8-tetrahydroquinazolin-2-yl)-N,N-dimethylmethanamine] | 6.00 to 6.60
11 | CC1(C)CCc2ncnc(N3CCOc4ccc(-c5ccc6[nH]c(C(F)F)nc6c5)cc4C3)c2C1 [Example 265] | ≥ 8.00
12 | Cc1ncnc(N2CCOc3ccc(-c4ccc5nc(N)sc5n4)cc3C2)c1Cc1ccc(F)cc1 [Example 140, 5-(4-{5-[(4-fluorophenyl)methyl]-6-methylpyrimidin-4-yl}-2,3,4,5-tetrahydro-1,4-benzoxazepin-7-yl)[1,3]thiazolo[5,4-b]pyridin-2-amine] | 7.30 to 8.00
13 | Cc1nc2ncc(-c3ccc4c(c3)CN(c3nc(CN(C)C)nc5ccc(F)cc35)CCO4)cc2[nH]1 [Example 359, 1-{6-fluoro-4-[7-(2-methyl-1H-imidazo[4,5-b]pyridin-6-yl)-2,3-dihydro-1,4-benzoxazepin-4(5H)-yl]quinazolin-2-yl}-N,N-dimethylmethanamine] | 6.00 to 6.60
14 | CN(C)Cc1nc2c(c(N3CCOc4ccc(-c5ccc6scnc6c5)cc4C3)n1)CC(C)(C)CC2 [Example 337, 1-{4-[7-(1,3-benzothiazol-5-yl)-2,3-dihydro-1,4-benzoxazepin-4(5H)-yl]-6,6-dimethyl-5,6,7,8-tetrahydroquinazolin-2-yl}-N,N-dimethylmethanamine] | 6.00 to 6.60
15 | COC1Cc2nc(CN(C)C)nc(N3CCOc4ccc(-c5ccc6scnc6c5)cc4C3)c2CC1(C)C (stereo not drawn) [Example 338, 1-{4-[7-(1,3-benzothiazol-5-yl)-2,3-dihydro-1,4-benzoxazepin-4(5H)-yl]-6,6-dimethyl-7-(methyloxy)-5,6,7,8-tetrahydroquinazolin-2-yl}-N,N-dimethylmethanamine] | ≤ 5.70
16 | CCNc1nc2ccc(-c3ccc4c(c3)CN(c3cc(Nc5ccccc5)ncn3)CCO4)cc2[nH]1 [Example 275, N-ethyl-6-{4-[6-(phenylamino)pyrimidin-4-yl]-2,3,4,5-tetrahydro-1,4-benzoxazepin-7-yl}-1H-benzimidazol-2-amine] | 6.60 to 7.30
17 | Cc1nc2ccc(-c3ccc4c(c3)CN(c3ncnc(C)c3Cc3ccccc3C)CCO4)cc2[nH]1 [Example 86, 7-(2-methyl-1H-benzimidazol-6-yl)-4-{6-methyl-5-[(2-methylphenyl)methyl]pyrimidin-4-yl}-2,3,4,5-tetrahydro-1,4-benzoxazepine] | 7.30 to 8.00
18 | Cc1nc(CN(C)C)nc(N2CCOc3ccc(-c4ccc5[nH]c(CF)nc5c4)cc3C2)c1C(C)C [Example 332, 1-[4-{7-[2-(fluoromethyl)-1H-benzimidazol-5-yl]-2,3-dihydro-1,4-benzoxazepin-4(5H)-yl}-6-methyl-5-(1-methylethyl)pyrimidin-2-yl]-N,N-dimethylmethanamine] | 6.60 to 7.30
19 | Cc1nc2ccc(-c3ccc4c(c3)CN(c3ccnc(C)c3Cc3ccc(F)cc3)CCO4)cc2[nH]1 [Example 102, 4-{3-[(4-fluorophenyl)methyl]-2-methylpyridin-4-yl}-7-(2-methyl-1H-benzimidazol-6-yl)-2,3,4,5-tetrahydro-1,4-benzoxazepine] | ≥ 8.00
20 | CC(C)(O)CNS(=O)(=O)c1cc(-c2ccc3c(c2)CN(c2ncnc4c2CC(C)(C)CC4)CCO3)cnc1N [Example 369, 2-amino-5-[4-(6,6-dimethyl-5,6,7,8-tetrahydroquinazolin-4-yl)-2,3,4,5-tetrahydro-1,4-benzoxazepin-7-yl]-N-(2-hydroxy-2-methylpropyl)pyridine-3-sulfonamide] | ≥ 8.00
21 | COc1ccc2c(N3CCOc4ccc(-c5ccc6[nH]cnc6c5)cc4C3)nc(CN(C)C)nc2c1 [Example 658, 1-{4-[7-(1H-benzimidazol-5-yl)-2,3-dihydro-1,4-benzoxazepin-4(5H)-yl]-7-(methyloxy)quinazolin-2-yl}-N,N-dimethylmethanamine] | ≤ 5.70
